In general, IC50 refers to the midpoint of a concentration-inhibition curve. The efflux ratio is the permeability from basolateral to apical divided by that in the opposite direction, in the common usage. What is called Papp A→B is the apparent permeability from the apical to the basolateral side of a cell layer. Higher therefore signals fast passage. A word on the Papp: it is the rate of passage across a membrane or cell layer, normalised by area and donor concentration.

Experimental findings from ChEMBL document CHEMBL6177977, “Discovery of a Potent, Selective, and Brain-Penetrant Checkpoint Kinase 1 Inhibitor, BEN-28010, for the Treatment of Glioblastoma” (J Med Chem, 2025) are described below.

Converted amounts (≈) assume the structure as drawn.

The target in data set [1] is Serine/threonine-protein kinase Chk2 (Homo sapiens, UniProt O96017). The data set can be described thus: biochemical.
Description: Inhibition of N-terminal GST-fused human full length CHK2 (1 to 543 residues) expressed in baculovirus-infected Sf21 cells using STK1 S1 as substrate preincubated for 30 mins in presence of ATP followed by MgCl2 addition and measured after 60 mins by TR-FRET assay
Another data set has as its system MDR1. The data set can be described thus: in vitro. The note with it: dog, MDCK-MDR1.
Data set [2] concerns the target T1, Serine/threonine-protein kinase Chk1 (Homo sapiens, UniProt O14757).
T1 sequence (O14757 whole entry): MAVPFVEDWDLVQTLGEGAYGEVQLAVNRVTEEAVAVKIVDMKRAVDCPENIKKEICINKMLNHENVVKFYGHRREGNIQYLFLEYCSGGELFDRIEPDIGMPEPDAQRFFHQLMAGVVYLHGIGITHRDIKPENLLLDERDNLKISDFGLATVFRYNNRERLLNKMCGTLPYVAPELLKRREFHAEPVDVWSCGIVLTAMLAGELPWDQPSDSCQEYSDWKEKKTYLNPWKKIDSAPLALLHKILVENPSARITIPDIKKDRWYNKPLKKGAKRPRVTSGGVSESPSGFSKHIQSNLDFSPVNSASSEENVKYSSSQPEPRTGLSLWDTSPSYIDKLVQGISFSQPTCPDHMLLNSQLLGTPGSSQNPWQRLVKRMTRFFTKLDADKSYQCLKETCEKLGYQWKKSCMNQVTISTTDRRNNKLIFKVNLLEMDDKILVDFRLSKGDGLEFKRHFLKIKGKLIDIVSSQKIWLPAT
The data set can be described thus: Inhibition of N-terminal GST-fused human full length CHK1 (1 to 476 residues) expressed in baculovirus-infected Sf21 cells using STK1 S1 as substrate preincubated for 30 mins in presence of ATP followed by MgCl2 addition and measured after 60 mins by TR-FRET assay. For orientation: In TR-FRET formats the signal depends on donor and acceptor labels being close together.

The next data set relates to BCRP. The data set can be described thus: in vitro. To be noted: dog.
A short description of data set [3]: Intrinsic clearance in rat liver microsomes measured per mg protein. The format is ADME, Microsome. The note with it: read-out: CLH. (In general: Microsomes from liver hold many membrane-bound enzymes, among them those of drug oxidation.)
The nature of the next data set: in vivo. The note with it: Sprague-Dawley, rat, brain and plasma, iv, 1 mg/kg.
The nature of data set [4]: Kinetic aqueous solubility of the compound at 250 uM measured after 2 hrs by RP-UPLC-DAD analysis. It counts as physicochemical. The note with it: buffer, read-out: Kinetic_solubility.
Data set [5] has as its target Voltage-gated inwardly rectifying potassium channel KCNH2 (Homo sapiens, UniProt Q12809). The data set can be described thus: Inhibition of hERG expressed in HEK cells by electrophysiology. It counts as toxicity, cell-based. For orientation: Block of hERG is tested as a sign of cardiac risk.
Data set [6] can be described thus: Intrinsic clearance in human liver microsomes measured per mg protein. It counts as ADME, Microsome. The note with it: read-out: CLH.
The next data set in a line: in vitro. To be noted: dog, MDCK.
For data set [7], the target named is T1, Serine/threonine-protein kinase Chk1. The data set can be described thus: Inhibition of human full length recombinant CHK1 using KKKVSRSGLYRSPSMPENLNRPR as substrate in presence of [gamma-33P]ATP incubated for 40 mins by radiometric assay.
A short description of data set [8]: Apparent permeability of the compound in dog MDCK-MDR1 cells at 1 uM measured after 1 day by LC-MS/MS analysis. It counts as ADME, cell-based, Canis lupus familiaris.
The target in data set [9] is Voltage-dependent L-type calcium channel subunit alpha-1C (Homo sapiens, UniProt Q13936). The experiment in a line: Inhibition of human Cav1.2 transfected in CHO cells by automated electrophysiological analysis. It counts as cell-based.
Data set [10] addresses Sodium channel protein type 5 subunit alpha (Homo sapiens, UniProt Q14524). The experiment in a line: Inhibition of human Nav1.5 transfected in CHO cells by automated electrophysiological analysis. The format is cell-based.
Data set [11] can be described thus: Plasma concentration required to achieve 50% in vivo inhibition of CHK1 assessed as accumulation of CHK1 phosphorylation at Ser345 residue in tumors in po dosed GBM LN-229 CDX NOD/SCID mouse model. The format is organism-based. The note with it: LN-229, Plasma.
In data set [12] the target is T1, Serine/threonine-protein kinase Chk1. The experiment in a line: Inhibition of CHK1 in neocarzinostatin-stimulated human SW620 cells assessed as inhibition of CHK1 phosphorylation at Ser296 residue incubated for 2 hrs by sandwich ELISA. It counts as cell-based.
Data set [13] relates to GBM. The data set can be described thus: Antitumor activity against human patient-derived GBM cells implanted in orthotopic NOG mouse model assessed as lifespan of animal's survival at 30 mg/kg, po qd for 28 days (reference value: 25.5 days). The format is functional. To be noted: time 28 day.
In data set [14] the test system is GBM. The experiment in a line: Antitumor activity against human patient-derived GBM cells implanted in orthotopic NOG mouse model assessed as lifespan of animal's survival at 50 mg/kg, po qd with dosing schedule of 3 days on and 4 days off for 28 days (reference value: 25.5 days). The format is functional. The note with it: time 28 day.
For data set [15], the system named is GBM. The experiment in a line: Antitumor activity against human patient-derived GBM cells implanted in orthotopic NOG mouse model assessed as lifespan of animal's survival at 100 mg/kg, po qd with dosing schedule of 2 days on and 11 days off for 28 days (reference value: 25.5 days). The format is functional. The note with it: time 28 day.
The test system of data set [16] is GBM. The data set can be described thus: Antitumor activity against human patient-derived GBM cells implanted in orthotopic NOG mouse model assessed as lifespan of animal's survival at 20 mg/kg, ip qd with dosing schedule of 5 days on and 2 days off for 28 days (reference value: 25.5 days). The format is functional. To be noted: time 28 day.

Sequence of Serine/threonine-protein kinase Chk2 (O96017 whole entry): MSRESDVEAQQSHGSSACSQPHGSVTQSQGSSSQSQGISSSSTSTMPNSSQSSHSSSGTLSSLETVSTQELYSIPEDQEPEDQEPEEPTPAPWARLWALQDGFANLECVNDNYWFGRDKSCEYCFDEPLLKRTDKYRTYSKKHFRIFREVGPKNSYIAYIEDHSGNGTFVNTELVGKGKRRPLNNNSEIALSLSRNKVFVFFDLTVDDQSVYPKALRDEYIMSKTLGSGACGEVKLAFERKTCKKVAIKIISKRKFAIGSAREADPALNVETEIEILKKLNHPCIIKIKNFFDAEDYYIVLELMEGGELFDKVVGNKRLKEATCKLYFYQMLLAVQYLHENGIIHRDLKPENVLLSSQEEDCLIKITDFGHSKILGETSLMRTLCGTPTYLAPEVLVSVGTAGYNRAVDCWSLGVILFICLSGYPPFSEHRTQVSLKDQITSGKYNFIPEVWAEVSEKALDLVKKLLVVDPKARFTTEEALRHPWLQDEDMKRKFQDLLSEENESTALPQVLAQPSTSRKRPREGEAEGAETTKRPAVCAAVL
Sequence of Voltage-gated inwardly rectifying potassium channel KCNH2 (Q12809 whole entry): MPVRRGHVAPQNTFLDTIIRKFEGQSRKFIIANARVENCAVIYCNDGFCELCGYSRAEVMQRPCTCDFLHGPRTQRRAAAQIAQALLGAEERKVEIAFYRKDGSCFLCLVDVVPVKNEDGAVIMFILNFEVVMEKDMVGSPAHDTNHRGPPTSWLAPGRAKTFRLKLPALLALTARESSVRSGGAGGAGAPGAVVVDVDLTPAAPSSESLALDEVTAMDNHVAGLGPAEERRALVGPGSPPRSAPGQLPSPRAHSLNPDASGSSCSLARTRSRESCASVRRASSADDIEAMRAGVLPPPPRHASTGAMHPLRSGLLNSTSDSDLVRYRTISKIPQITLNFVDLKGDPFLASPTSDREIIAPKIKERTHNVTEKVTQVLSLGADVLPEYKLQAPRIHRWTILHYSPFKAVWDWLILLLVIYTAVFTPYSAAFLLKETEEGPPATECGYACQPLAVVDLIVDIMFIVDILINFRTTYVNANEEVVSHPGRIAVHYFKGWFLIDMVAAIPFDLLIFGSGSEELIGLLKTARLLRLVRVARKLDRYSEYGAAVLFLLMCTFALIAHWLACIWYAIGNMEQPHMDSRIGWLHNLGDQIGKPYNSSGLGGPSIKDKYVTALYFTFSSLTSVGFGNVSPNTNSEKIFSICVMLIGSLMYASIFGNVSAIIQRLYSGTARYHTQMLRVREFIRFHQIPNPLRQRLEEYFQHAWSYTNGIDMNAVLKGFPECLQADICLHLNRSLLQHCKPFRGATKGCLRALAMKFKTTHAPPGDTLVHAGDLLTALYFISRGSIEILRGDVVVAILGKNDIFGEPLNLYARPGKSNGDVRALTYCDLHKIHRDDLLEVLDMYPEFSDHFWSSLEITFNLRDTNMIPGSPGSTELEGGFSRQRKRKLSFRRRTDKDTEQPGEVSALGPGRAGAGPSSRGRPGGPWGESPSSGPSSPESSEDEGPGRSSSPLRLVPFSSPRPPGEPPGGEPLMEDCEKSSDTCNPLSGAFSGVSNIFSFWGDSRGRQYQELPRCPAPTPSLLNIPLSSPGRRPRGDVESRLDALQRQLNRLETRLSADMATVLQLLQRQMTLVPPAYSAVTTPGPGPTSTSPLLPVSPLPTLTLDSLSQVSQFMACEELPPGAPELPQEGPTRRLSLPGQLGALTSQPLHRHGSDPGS
Sequence of Sodium channel protein type 5 subunit alpha (Q14524 whole entry): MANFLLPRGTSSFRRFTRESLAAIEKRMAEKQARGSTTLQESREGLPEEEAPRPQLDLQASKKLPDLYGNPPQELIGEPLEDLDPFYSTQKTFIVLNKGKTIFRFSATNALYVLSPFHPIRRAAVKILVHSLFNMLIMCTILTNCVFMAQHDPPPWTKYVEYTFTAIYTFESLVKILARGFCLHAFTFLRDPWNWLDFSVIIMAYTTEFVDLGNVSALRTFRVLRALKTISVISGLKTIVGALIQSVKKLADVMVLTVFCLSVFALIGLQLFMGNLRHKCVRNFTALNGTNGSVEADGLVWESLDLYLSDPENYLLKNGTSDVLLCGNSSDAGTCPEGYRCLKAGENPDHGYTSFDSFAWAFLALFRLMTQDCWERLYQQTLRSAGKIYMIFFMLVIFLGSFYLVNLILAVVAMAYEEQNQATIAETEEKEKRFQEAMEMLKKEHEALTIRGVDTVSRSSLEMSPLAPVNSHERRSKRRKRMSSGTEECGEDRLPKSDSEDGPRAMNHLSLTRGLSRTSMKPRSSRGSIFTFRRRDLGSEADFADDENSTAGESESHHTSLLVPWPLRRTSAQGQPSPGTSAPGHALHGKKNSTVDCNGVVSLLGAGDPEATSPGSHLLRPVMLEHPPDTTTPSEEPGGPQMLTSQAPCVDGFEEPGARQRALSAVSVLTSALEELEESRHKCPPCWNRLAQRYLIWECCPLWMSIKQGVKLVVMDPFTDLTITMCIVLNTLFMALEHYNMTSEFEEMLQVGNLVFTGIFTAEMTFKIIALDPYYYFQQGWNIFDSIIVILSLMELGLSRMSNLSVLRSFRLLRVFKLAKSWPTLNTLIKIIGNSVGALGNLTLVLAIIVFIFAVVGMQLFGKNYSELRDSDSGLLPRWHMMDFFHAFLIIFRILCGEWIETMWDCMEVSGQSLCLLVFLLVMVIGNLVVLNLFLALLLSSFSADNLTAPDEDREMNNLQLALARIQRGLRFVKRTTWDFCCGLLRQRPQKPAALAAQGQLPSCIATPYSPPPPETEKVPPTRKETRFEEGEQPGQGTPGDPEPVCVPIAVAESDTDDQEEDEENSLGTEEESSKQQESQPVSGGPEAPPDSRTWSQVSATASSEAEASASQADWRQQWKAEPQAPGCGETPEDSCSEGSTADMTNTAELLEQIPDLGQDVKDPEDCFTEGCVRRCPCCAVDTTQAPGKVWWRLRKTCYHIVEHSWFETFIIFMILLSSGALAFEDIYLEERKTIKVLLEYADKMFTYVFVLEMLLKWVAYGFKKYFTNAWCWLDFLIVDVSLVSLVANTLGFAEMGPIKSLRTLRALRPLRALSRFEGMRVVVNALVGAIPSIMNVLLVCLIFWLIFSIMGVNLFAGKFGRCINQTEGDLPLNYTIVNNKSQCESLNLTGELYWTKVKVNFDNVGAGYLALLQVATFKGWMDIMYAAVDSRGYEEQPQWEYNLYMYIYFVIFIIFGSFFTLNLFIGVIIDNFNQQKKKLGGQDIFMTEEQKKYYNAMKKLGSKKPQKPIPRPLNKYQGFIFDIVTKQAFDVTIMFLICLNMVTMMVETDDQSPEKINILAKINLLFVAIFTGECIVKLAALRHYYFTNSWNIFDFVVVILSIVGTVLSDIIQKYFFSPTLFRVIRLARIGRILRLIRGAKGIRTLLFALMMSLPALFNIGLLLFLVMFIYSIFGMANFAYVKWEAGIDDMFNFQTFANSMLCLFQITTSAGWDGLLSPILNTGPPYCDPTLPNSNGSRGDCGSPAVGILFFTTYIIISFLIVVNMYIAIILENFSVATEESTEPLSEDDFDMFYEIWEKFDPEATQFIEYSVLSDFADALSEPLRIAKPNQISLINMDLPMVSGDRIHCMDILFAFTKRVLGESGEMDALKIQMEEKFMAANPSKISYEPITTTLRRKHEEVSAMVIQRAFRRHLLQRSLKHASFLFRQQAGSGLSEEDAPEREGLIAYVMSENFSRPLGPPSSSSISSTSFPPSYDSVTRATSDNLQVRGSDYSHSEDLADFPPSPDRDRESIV
Description for BCRP: Efflux ratio of apparent permeability across basal to apical side over apical to basal side in dog MDCK-BCRP cells at 1 uM measured after 1 day by LC-MS/MS analysis
Description for MDR1: Efflux ratio of apparent permeability across basal to apical side over apical to basal side in dog MDCK-MDR1 cells at 1 uM measured after 1 day by LC-MS/MS analysis
Description for in vivo: Unbound brain-to-plasma concentration ratio in Sprague-Dawley rat at 1 mg/kg, iv measured after 15 mins by rapid equilibrium dialysis method

`CN1CC[C@@H]2CN(c3ccc(-n4cnc(Nc5cnc(C#N)cn5)c4)cc3)C[C@@H]21`: the IC50 in data set [1] is > 10000 nM; in [2] it was 17 nM. Also, the efflux ratio at 24 h, 1 µM is 2.5 in the data set with MDR1 and 2.7 in the data set with BCRP.
Turning to `CN(C)C1CN(c2ccc(-n3cnc(Nc4cnc(C#N)cn4)c3)cc2)C1`, the IC50 in data set [1] is > 10000 nM; in data set [2], 9 nM.
On to `CCN1CCN(c2ccc(-n3cnc(Nc4cnc(C#N)cn4)c3)cc2)CC1`, for which the IC50 in data set [2] worked out at 21 nM.
On to `CN(C)C1CCN(c2ccc(-n3cnc(Nc4cnc(C#N)cn4)c3)cc2)CC1`, for which the values for the IC50 in data set [1] and in data set [2] were 8760 nM and 11 nM, respectively. Moreover, the results for the efflux ratio at 24 h, 1 µM with MDR1 and with BCRP were 26 and 23, respectively.
Turning to `CN1CC2(CCN(c3ccc(-n4cnc(Nc5cnc(C#N)cn5)c4)cc3)C2)C1`, the IC50 in [1] is > 10000 nM; in [2], 12 nM.
Consider `CN1CCN(c2ccc(-n3cnc(Nc4cnc(C#N)cn4)c3)cc2)CC1`, for which the IC50 in data set [1] is > 10000 nM; in data set [2], 15 nM; in [5], > 30000 nM. For the same compound, the results for the efflux ratio at 24 h, 1 µM in the data set on MDR1 and with BCRP were 1.7 and 3.7, respectively. Besides, the figures for the microsomal CLint in [3] and in data set [6] were 47 µL/min/mg and < 14 µL/min/mg, respectively. The compound further showed a Kp uu at […] in “in vivo” of 0.4. Further, the solubility kinetic at 2 h, 250 µM in data set [4] worked out at 59 µM (≈ 21.3 µg/mL). The compound also registered a Papp A→B at 24 h, 1 µM in “in vitro” of 58 ×10⁻⁶ cm/s.
For the compound `C[C@@H]1CN(c2ccc(-n3cnc(Nc4cnc(C#N)cn4)c3)cc2)C[C@@H]1N(C)C`, the IC50 in data set [1] is > 10000 nM; in data set [2], 16 nM.
On the same counts, the results for `CCN(C)[C@@H]1CCN(c2ccc(-n3cnc(Nc4cnc(C#N)cn4)c3)cc2)C1` are 2070 nM and 4 nM.
For `CN1CC2(CCN(c3nc(Nc4cn(-c5ccccn5)cn4)cnc3C#N)C2)C1`, the efflux ratio at 24 h, 1 µM in the data set with MDR1 and with BCRP was > 50 in each case. Also, the IC50 in data set [2] is 2 nM.
With `CN(C)[C@]1(C)CCN(c2ccc(-n3cnc(Nc4cnc(C#N)cn4)c3)cc2)C1`, the IC50 stood at 1100 nM in data set [1] and 2 nM in data set [2]. The values for the efflux ratio at 24 h, 1 µM with MDR1 and in the data set on BCRP were 3.6 and 1.5, respectively.
Turning to `N#Cc1cnc(Nc2cn(-c3ccccc3)cn2)cn1`, the efflux ratio at 24 h, 1 µM with MDR1 was 0.6; in the data set on BCRP it was 1. In data set [7], the IC50 turned out to be 549 nM.
As to `N#Cc1cnc(Nc2cn(C(F)F)cn2)cn1`, in the data set on MDR1, the efflux ratio at 24 h, 1 µM worked out at 0.9. Moreover, the Papp at 24 h, 1 µM in [8] is 66 ×10⁻⁶ cm/s. The IC50 in data set [7] was determined as 3000 nM.
In the case of `CN(C)[C@H]1CN(c2ccc(-n3cnc(Nc4cnc(C#N)cn4)c3)cc2)C[C@@H]1F`, the IC50 amounted to 1310 nM in [1] and 5 nM in data set [2].
On to `N#Cc1cnc(Nc2cn(-c3ccc(N4CCN(CCF)CC4)cc3)cn2)cn1`, for which the IC50 in [1] is > 10000 nM; in [2], 40 nM. Besides, the efflux ratio at 24 h, 1 µM in the data set on MDR1 was < 1; with BCRP, 1.4.
With `CN(C)[C@H]1CCN(c2ccc(-n3cnc(Nc4cnc(C#N)cn4)c3)cc2)C1`, in data set [2], the IC50 came to 68 nM.
As to `CN(C)[C@@H]1CCN(c2ccc(-n3cnc(Nc4cnc(C#N)cn4)c3)cc2)C1`, the IC50 in data set [9] was > 30000 nM; in data set [10], > 30000 nM; in [11], 209 nM; in [12], 450 nM; in data set [2], 4 nM. The Survival in the data set on GBM [13] was determined as 34 days; in the data set with GBM [14], 39.5 days; with GBM [15], 50 days.
In the case of `CN1CC2(C1)CN(c1ccc(-n3cnc(Nc4cnc(C#N)cn4)c3)cc1)C2`, in data set [2], the IC50 stood at 31 nM.
As to `CN(C)[C@H]1CN(c2ccc(-n3cnc(Nc4cnc(C#N)cn4)c3)cc2)C[C@H]1F`, the IC50 worked out at 3190 nM in data set [1] and 14 nM in data set [2].
In the same order, the values of `C[C@H]1CN(c2ccc(-n3cnc(Nc4cnc(C#N)cn4)c3)cc2)C[C@@H]1N(C)C` are 2720 nM and 4 nM.
As for `CN1CC2(CCN(c3nc(Nc4cn(C(F)F)cn4)cnc3C#N)C2)C1`, the results for the efflux ratio at 24 h, 1 µM in the data set on MDR1 and with BCRP were 34 and > 50, respectively. In addition, in [2], the IC50 amounted to 14 nM.
For the compound `Cn1nnc2c(C(N)=O)ncn2c1=O` [TEMOZOLOMIDE], the Survival in the data set on GBM [16] amounted to 43 days.
As for `Cc1cc(N2CCN(C)CC2)ccc1-n1cnc(Nc2cnc(C#N)cn2)c1`, the IC50 in [2] turned out to be 464 nM.
